Patent US9415055B2, “Cyclic amines” (H. Lundbeck A/S, priority 2012, dated 2016)

What follows are compounds tested against P2X7 receptor (Homo sapiens (Human), UniProt Q99572) (assay: P2X7 FLIPR assay: antagonism of BzATP response in 293 HEK cells stably expressing P2X7 receptor). Settings: FLIPR fluorescence (Fluo-4), agonist BzATP, 293 HEK cells stably transfected with P2X7 receptor.
Assay type: cell-based
In short: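 Antagonist IC50 derived from FLIPR Tetra Fluo-4 calcium signal evoked by BzATP. Compound pre-incubation was 30 min at room temperature on P2X7-expressing HEK293 cells, seeded 24 h before in low-serum medium and dye-loaded 30 min at 37 °C then 30 min at RT.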

P2X7 receptor, sequence (Q99572 whole entry): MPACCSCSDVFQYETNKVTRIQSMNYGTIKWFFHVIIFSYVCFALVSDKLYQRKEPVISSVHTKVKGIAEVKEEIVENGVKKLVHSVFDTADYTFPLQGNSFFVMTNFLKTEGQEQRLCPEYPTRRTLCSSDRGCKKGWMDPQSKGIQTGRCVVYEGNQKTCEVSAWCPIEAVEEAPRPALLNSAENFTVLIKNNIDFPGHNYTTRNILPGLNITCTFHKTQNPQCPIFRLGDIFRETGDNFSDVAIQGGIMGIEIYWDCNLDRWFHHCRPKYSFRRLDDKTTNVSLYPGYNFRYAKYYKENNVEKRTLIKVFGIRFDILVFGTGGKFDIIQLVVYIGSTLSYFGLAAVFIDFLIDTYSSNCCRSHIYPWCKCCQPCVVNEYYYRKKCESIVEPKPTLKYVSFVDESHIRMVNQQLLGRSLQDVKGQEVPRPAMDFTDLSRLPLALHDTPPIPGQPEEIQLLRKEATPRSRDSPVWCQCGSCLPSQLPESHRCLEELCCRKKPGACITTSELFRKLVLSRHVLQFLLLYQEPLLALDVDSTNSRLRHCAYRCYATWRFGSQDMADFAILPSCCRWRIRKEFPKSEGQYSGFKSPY

SMILES	IC50 [nM]
O=C(NCC(c1ccc(C(F)(F)F)nc1)N1CCC(F)(F)CC1)c1ccccc1Cl (stereo not shown) [2-Chloro-N-[2-(4,4-difluoro-1-piperidyl)-2-[6-(trifluoromethyl)-3-pyridyl]ethyl]benzamide]	1.8
O=C(NCC(c1cnc(C(F)(F)F)nc1)N1CCC(F)(F)CC1)c1ccccc1Cl (stereo not shown) [2-chloro-N-(2-(4,4-difluoropiperidin-1-yl)-2-(2-(trifluoromethyl)pyrimidin-5-yl)ethyl)benzamide]	2.8
O=C(NCC(c1ccc(F)nc1)N1CCC(F)(F)CC1)c1ccccc1Cl (stereo not shown) [2-chloro-N-[2-(4,4-difluoro-1-piperidyl)-2-(6-fluoro-3-pyridyl)ethyl]benzamide]	4
O=C(NCC(c1ccc(Cl)cc1)N1CCC(F)(F)CC1)c1cccc(Cl)c1Cl (stereo not shown) [N-[2-(4-Chloro-phenyl)-2-(4,4-difluoro-piperidin-1-yl)-ethyl]-2,3-dichloro-benzamide]	46
Cc1cccc(C(=O)NCC(c2ccc(Cl)cc2)N2CCC(F)(F)CC2)c1C (stereo not shown) [N-[2-(4-Chloro-phenyl)-2-(4,4-difluoro-piperidin-1-yl)-ethyl]-2,3-dimethyl-benzamide]	3.6
Cc1ccccc1C(=O)NCC(c1ccc(Cl)cc1)N1CCC(F)(F)CC1 (stereo not shown) [N-[2-(4-Chloro-phenyl)-2-(4,4-difluoro-piperidin-1-yl)-ethyl]-2-methyl-benzamide]	2
COc1ccc(C(CNC(=O)c2cccc(C)c2C)N2CCOCC2)cc1 (stereo not shown) [N-[2-(4-Methoxy-phenyl)-2-morpholin-4-yl-ethyl]-2,3-dimethyl-benzamide]	47
COc1ccc(C(CNC(=O)c2ccccc2C)N2CCOCC2)cc1 (stereo not shown) [N-[2-(4-Methoxy-phenyl)-2-morpholin-4-yl-ethyl]-2-methyl-benzamide]	500
COc1ccc(C(CNC(=O)c2cccc(C)c2C)N2CCCCC2)cc1 (stereo not shown) [N-[2-(4-Methoxy-phenyl)-2-piperidin-1-yl-ethyl]-2,3-dimethyl-benzamide]	420
COc1ccc(C(CNC(=O)c2ccccc2C)N2CCCCC2)cc1 (stereo not shown) [N-[2-(4-Methoxy-phenyl)-2-piperidin-1-yl-ethyl]-2-methyl-benzamide]	3900

Other lines, results leading:

IC50 [nM]	SMILES
0.53	Cc1cccc(C(=O)NC[C@H](c2ccc(Cl)cc2)N2CCOCC2)c1Cl [2-Chloro-N-[(S)-2-(4-chloro-phenyl)-2-morpholin-4-yl-ethyl]-3-methyl-benzamide]
330	Cc1ncc(C(CNC(=O)c2cccc(F)c2Cl)N2CCCOCC2)cn1 (stereo not shown) [2-chloro-3-fluoro-N-(2-(2-methylpyrimidin-5-yl)-2-(1,4-oxazepan-4-yl)ethyl)benzamide]
1200	Cc1ncc(C(CNC(=O)c2cccc(F)c2Cl)N2CCOCC2)cn1 (stereo not shown) [2-chloro-3-fluoro-N-(2-(2-methylpyrimidin-5-yl)-2-morpholinoethyl)benzamide]
11	O=C(NCC(c1cnc(C(F)(F)F)nc1)N1CCOCC1)c1cccc(F)c1Cl (stereo not shown) [2-chloro-3-fluoro-N-(2-morpholino-2-(2-(trifluoromethyl)pyrimidin-5-yl)ethyl)benzamide]
820	Cc1ncc(C(CNC(=O)c2c(F)cccc2Cl)N2CCCOCC2)cn1 (stereo not shown) [2-chloro-6-fluoro-N-(2-(2-methylpyrimidin-5-yl)-2-(1,4-oxazepan-4-yl)ethyl)benzamide]
590	Cc1ncc(C(CNC(=O)c2c(F)cccc2Cl)N2CCOCC2)cn1 (stereo not shown) [2-chloro-6-fluoro-N-(2-(2-methylpyrimidin-5-yl)-2-morpholinoethyl)benzamide]
680	Cc1ncc(C(CNC(=O)c2ccccc2Cl)N2CCCOCC2)cn1 (stereo not shown) [2-chloro-N-(2-(2-methylpyrimidin-5-yl)-2-(1,4-oxazepan-4-yl)ethyl)benzamide]
3600	CC1(C)CCN(C(CNC(=O)c2cccc(F)c2Cl)c2cnc(C(F)(F)F)nc2)CC1 (stereo not shown) [2-chloro-N-[2-(4,4-dimethyl-1-piperidyl)-2-[2-(trifluoromethyl)pyrimidin-5-yl]ethyl]-3-fluoro-benzamide]
3200	Cc1ncc(C(CNC(=O)c2cccc(Cl)c2Cl)N2CC3CCC2C3)cn1 (stereo not shown) [N-(2-(2-azabicyclo[2.2.1]heptan-2-yl)-2-(2-methylpyrimidin-5-yl)ethyl)-2,3-dichlorobenzamide]
20	Cc1cccc(C(=O)NCC(c2ccc(F)cc2)N2CCOCC2)c1C (stereo not shown) [N-[2-(4-Fluoro-phenyl)-2-morpholin-4-yl-ethyl]-2,3-dimethyl-benzamide]
110	Cc1ccccc1C(=O)NCC(c1ccc(F)cc1)N1CCOCC1 (stereo not shown) [N-[2-(4-Fluoro-phenyl)-2-morpholin-4-yl-ethyl]-2-methyl-benzamide]
9.3	Cc1ccccc1C(=O)NC[C@H](c1ccc(Cl)cc1)N1CCOCC1 [N-[(S)-2-(4-Chloro-phenyl)-2-morpholin-4-yl-ethyl]-2-methyl-benzamide]
